The test system of experiment [1] is alloxan induced diabetic rats. Put plainly: Alloxan induced diabetic rats: hydroxychloroquine with pioglitazone. It is filed as in vivo, Wistar rats. Conditions: nine days, HCQ 160 or PIO 10 mg/kg/day p.o. As to the method: (§1) Thirty Wistar rats weighing 150-200 g of either sex were divided into six groups consisting of five rats each. Experimental diabetes was induced in rats by injecting alloxan monohydrate intraperitonially at a dose of 90 mg/kg body weight. Rats with blood sugar level of 250-350 mg/dl, were considered as diabetic and employed in the study. Group 1 (normal control) consisted of normal rats that neither received alloxan monohydrate nor any drug. Group 2 served as diabetic control which received vehicle orally. […] The study drugs were administered for nine days.

Experiment [2] has as its system sulphonylurea-refractory patients with poorly controlled Type 2 diabetes. The following applies: cited from earlier work.
For experiment [3] the following is noted: cited from earlier work.
Experiment [4] concerns alloxan induced diabetic rats. In words: Alloxan induced diabetic rats: hydroxychloroquine with glimepiride. Conditions: nine days, HCQ 160 or GLM 8 mg/kg/day p.o. It is filed as in vivo, Wistar rats. As to the method:
Thirty Wistar rats weighing 150-200 g of either sex were divided into six groups consisting of five rats each. Experimental diabetes was induced in rats by injecting alloxan monohydrate intraperitonially at a dose of 90 mg/kg body weight. Rats with blood sugar level of 250-350 mg/dl, were considered as diabetic and employed in the study. Group 1 (normal control) consisted of normal rats that neither received alloxan monohydrate nor any drug. Group 2′ served as diabetic control which received vehicle orally. […] The study drugs were administered for nine days.

In experiment [5] the test system is adults with rheumatoid arthritis. The following applies: cited from earlier work.
Experiment [6] relates to alloxan induced diabetic rats. In words: Alloxan induced diabetic rats: hydroxychloroquine with metformin. The experiment is classed as in vivo, Wistar rats. Conditions: nine days, HCQ 160 or MET 500 mg/kg/day p.o. How it is done: as §1
The conditions of experiment [7]: cited from earlier work. The source holds these as a separate data set.
Setting [8] is: patients treated with hydroxychloroquine.

Marks after values point to notes of the source that are not given here.

Regarding `CCN(CCO)CCCC(C)Nc1ccnc2cc(Cl)ccc12` (centres unmarked) [HCQ, hydroxychloroquine], in experiment [1], the “Blood Glucose (mg/dl) Final” value worked out at 263.80 ± 2.04 mg/dL, the “Body Weight (g) Final” value was 151.60 ± 13.16 g, the “Alb. (Albumin)” value is 4.03 ± 0.13^a g/dl and the “Blood Glucose (% mean change)” value is reported as “(−10.81)^c %”. Also, in experiment [1], the “Body Weight (% mean change)” value was “(−10.51)^b %”, the “HDL (High Density Lipoprotein)” value was 35.80 ± 2.28^b mg/dl, the “Hb (Hemoglobin)” value is reported as 12.12 ± 1.27^a g/dl and the “TC (Total Cholesterol)” value was 178.40 ± 2.70^c mg/dl. For the same compound, in experiment [1], the “TG (Triglyceride)” value is on record as 117.20 ± 2.28^b mg/dl and the Urea is recorded as 29.70 ± 1.37^b mg/dl. Further, the “Blood Glucose (% mean change)” value in experiment [1] (listed as hydroxychloroquine) is given as −10.81%. Also, in experiment [2], the glycemic control entry is “improved glycemic control”. Besides, the “serum levels of cholesterol, triglycerides, and LDL” value in experiment [3] (irrespective of concomitant steroid administration) is “high statistical association with low serum levels”. For the same compound, in experiment [3] (setting [8]), the “HDL and % HDL” value is reported as “rise”; the “decrease in serum levels of cholesterol” value is “approximately 10%”. Moreover, in experiment [4], the “Blood Glucose (mg/dl) Final” value was 263.80 ± 2.04 mg/dL, the “Body Weight (g) Final” value is 151.60 ± 13.16 g, the “Alb. (Albumin)” value is 4.03 ± 0.13^a g/dl and the “Blood Glucose (% mean change)” value is “(−10.81)^c %”. Moreover, in experiment [4], the “Body Weight (% mean change)” value is recorded as “(−10.51)^b %”, the “HDL (High Density Lipoprotein)” value was 35.80 ± 2.28^b mg/dl, the “Hb (Hemoglobin)” value is 12.12 ± 1.27^a g/dl and the “TC (Total Cholesterol)” value was 178.40 ± 2.70^c mg/dl. Moreover, in experiment [4], the “TG (Triglyceride)” value was 117.20 ± 2.28^b mg/dl and the Urea was 29.70 ± 1.37^b mg/dl. Also, in experiment [4] (listed as hydroxychloroquine), the “Blood Glucose (% mean change)” value is −10.81%. For the same compound, the risk of diabetes entry in experiment [5] was “reduced risk of diabetes”. Moreover, in experiment [6], the “Blood Glucose (mg/dl) Final” value turned out to be 263.80 ± 2.04 mg/dL, the “Body Weight (g) Final” value worked out at 151.60 ± 13.16 g, the “Alb. (Albumin)” value is listed as 4.03 ± 0.13^a g/dl and the “Blood Glucose (% mean change)” value is “(−10.81)^c %”. In addition, in experiment [6], the “Body Weight (% mean change)” value is “(−10.51)^b %”, the “HDL (High Density Lipoprotein)” value is 35.80 ± 2.28^b mg/dl, the “Hb (Hemoglobin)” value is reported as 12.12 ± 1.27^a g/dl and the “TC (Total Cholesterol)” value is recorded as 178.40 ± 2.70^c mg/dl. For the same compound, in experiment [6], the “TG (Triglyceride)” value is 117.20 ± 2.28^b mg/dl and the Urea is given as 29.70 ± 1.37^b mg/dl. Also, in experiment [6] (listed as hydroxychloroquine), the “Blood Glucose (% mean change)” value is listed as −10.81%. In experiment [7] (humans, without prolonging the bleeding time), the “red blood cell aggregation” value is on record as “reduction”. Further, the “plasma viscosity as well as whole blood viscosity” value in experiment [7] (postoperative patients) is “significant reduction”.

For `CCC1=C(C)CN(C(=O)NCCc2ccc(S(=O)(=O)NC(=O)N[C@H]3CC[C@H](C)CC3)cc2)C1=O` [GLM, glimepiride], in experiment [4], the “Blood Glucose (mg/dl) Final” value stood at 157.2 ± 17.64 mg/dL, the “Body Weight (g) Final” value was 170 ± 11.22 g, the “Alb. (Albumin)” value is reported as 3.99 ± 0.24^a g/dl and the “Blood Glucose (% mean change)” value is “(−46.83)^d %”. In experiment [4], the “Body Weight (% mean change)” value is listed as “(−3.40)^c %”, the “HDL (High Density Lipoprotein)” value is given as 33 ± 1.58^b mg/dl, the “Hb (Hemoglobin)” value is on record as 14.04 ± 1.90^b g/dl and the “Protein (T) (Total Protein)” value was 5.78 ± 1.22^b g/dl. Besides, in experiment [4], the “TC (Total Cholesterol)” value is reported as 169.40 ± 7.05^b mg/dl, the “TG (Triglyceride)” value is listed as 113.40 ± 3.64^b mg/dl and the Urea is listed as 30.26 ± 0.86^b mg/dl.

In the case of `CN(C)C(=N)N=C(N)N` [MET, metformin], in experiment [6], the “Blood Glucose (mg/dl) Final” value came to 148.8 ± 17.35 mg/dL, the “Body Weight (g) Final” value was determined as 173.8 ± 7.19 g, the “Alb. (Albumin)” value was 4.52 ± 1.12^a g/dl and the “Blood Glucose (% mean change)” value is given as “(−47.58)^d %”. Further, in experiment [6], the “Body Weight (% mean change)” value is “(−10.51) c %”, the “HDL (High Density Lipoprotein)” value was 34.40 ± 2.51^b mg/dl, the “Hb (Hemoglobin)” value is 12.80 ± 1.25^b g/dl and the “Protein (T) (Total Protein)” value is given as 6.75 ± 0.80^b g/dl. For the same compound, in experiment [6], the “TC (Total Cholesterol)” value was 170.40 ± 5.90^b mg/dl, the “TG (Triglyceride)” value is reported as 111.20 ± 5.93^b mg/dl and the Urea was 31.49 ± 1.81^b mg/dl. Besides, in experiment [6] (listed as Metformin), the “Blood Glucose (% mean change)” value is reported as 47.58%.

For `CCc1ccc(CCOc2ccc(CC3SC(=O)NC3=O)cc2)nc1` (centres unmarked) [PIO, pioglitazone], in experiment [1], the “Blood Glucose (mg/dl) Final” value came to 175.8 ± 5.48 mg/dL, the “Body Weight (g) Final” value is given as 159.20 ± 11.21 g, the “Alb. (Albumin)” value was 4.03 ± 0.14^a g/dl and the “Blood Glucose (% mean change)” value is recorded as “(−41.92)^a %”. In experiment [1], the “Body Weight (% mean change)” value is “(−6.07)^a %”, the “HDL (High Density Lipoprotein)” value is given as 35.8 ± 2.28^b mg/dl, the “Hb (Hemoglobin)” value was 12.12 ± 1.27^b g/dl and the “Protein (T) (Total Protein)” value is recorded as 6.06 ± 1.43^b g/dl. In experiment [1], the “TC (Total Cholesterol)” value is 178.4 ± 2.70^b mg/dl, the “TG (Triglyceride)” value is on record as 117.2 ± 2.28^b mg/dl and the Urea is recorded as 29.69 ± 1.37^b mg/dl.

(Values after US20110230501A1, “PHARMACEUTICAL COMPOSITIONS FOR THE TREATMENT OF DIABETES MELLITUS” (IPCA Laboratories Ltd., priority 2008, published 2011).)
